Laboratory results: paper PMC6751730 (ACS Omega, 2019)

Tests used:
A549 cancer cells = assay: MTT antiproliferative assay, A549; type: cell-based, human; conditions: 24 h drug exposure
BEAS-2B normal cells = assay: MTT antiproliferative assay, normal cells BEAS-2B; type: cell-based; conditions: 24 h drug exposure
HepG2 cancer cells = assay: MTT antiproliferative assay, HepG2; type: cell-based; conditions: 24 h drug exposure
HeLa cancer cells = assay: MTT antiproliferative assay, HeLa; type: cell-based, human; conditions: 24 h drug exposure
lysosomes in A549 cells = conditions: cited from earlier work

SMILES	IC50 (A549 cancer cells) [µM]	IC50 (BEAS-2B normal cells) [µM]	IC50 (HepG2 cancer cells) [µM]	IC50 (HeLa cancer cells) [µM]	Colocalization coefficient with lysosome (lysosomes in A549 cells)
N.N.[Cl][Pt][Cl] [cisplatin]	21.3 ± 1.7	42 ± 2.3	22.7 ± 1.1	7.5 ± 0.2	–
CCNc1cc2c(cc1C)C1(c3cc(C)c(NCC)cc3O2)c2ccccc2C(=O)N1N [rhodamine 6G hydrazide]	–	–	–	–	0.58
CCN(CC)c1ccc2c(c1)Oc1cc(N(CC)CC)ccc1C21c2ccccc2C(=O)N1N [rhodamine B hydrazide]	–	–	–	–	0.62
